Test results: US8207206B2, “(S,R)-3-phenyl-4,5 dihydro-5-isoxazole acetic acid-nitric oxide and use thereof as anti-cancer and antiviral agent” (OncoNOx APS, priority 2007, dated 2012)

How the values were obtained:
B16 cells = assay: ROS measurement by DHR fluorescence (flow cytometry); format: cell-based, mouse; settings: B16, 25 μg/ml, 24 h
Method: (§1) The cells grown in the 6-well plate were stained with 1 μM dihydrorhodamine 123 (DHR) 20 min before the treatment with the test compound. At the end of the cultivation period the cells were detached, washed and resuspended in PBS. Analysis of ROS release was performed with a FACSCalibur and analyzed using CellQuest Pro software (Kaludjerovic 2005).

L929 cells = assay: as above; format: cell-based, mouse; settings: L929, 25 μg/ml, 24 h
Method: as §1

diabetes = settings: NOD mice with spontaneous or accelerated diabetes, or multiple low dose streptozotocin diabetes; cited from earlier work
C6 cells = assay: ROS measurement by DHR fluorescence (flow cytometry); format: cell-based, rat; settings: C6, 25 μg/ml, 24 h
Method: as §1

[1] = system: L929 mouse fibrosarcoma cells; assay: MTT / CV cell viability test; format: cell-based; settings: L929 cells, different concentrations, 24 h; cell number also reduced by CV
Method: (§2) Rat glioma cell line C6 was a kind gift from Dr. Pedro Tranque (Universidad de Castilla-La Mancha, Albacete, Spain), murine melanoma B16 cell line was a kind gift from Dr. Sinisa Radulovic (Institute for Oncology and Radiology of Serbia, Belgrade, Serbia) while mouse fibrosarcoma L929 was obtained from the European Collection of Animal Cell Cultures (Salisbury, UK). Cells were grown in HEPES-buffered RPM, 1640 medium supplemented with 5% FCS, 2 mM glutamine, 0.01% sodium pyruvate, 5×10^−5 M 2-mercaptoethanol and antibiotics (culture medium) at 37° C. in a humidified atmosphere with 5% CO2. After conventional trypsinization the cells were seeded at a concentration of 10^4 cells/well in a 96-well plate, of 2×10^5 cells/well in a 6-well plate or at 3×10^4 cells/well in a 4-well chamber slide, cultivated overnight, and then exposed to the test compound.
(§3) The cells were seeded in flat-bottom 96-well plates (10^4 cells/well) in a final volume of 200 μl of culture medium, incubated overnight, then treated with different concentrations of the test compound. After 24 h incubation, cell viability was assessed using 3-4,5-dimethylthiazol-2-yl)-2,5-diphenyltetrazolium bromide (MTT) test, based on the mitochondrial-dependent reduction of MTT to formazan, or by crystal violet (CV) staining of adherent cells, as previously described (Mijatovic et al CMLS 2004). The results are presented as % of control values obtained in untreated cultures. The rate of cell proliferation was also determined using flow cytometric analysis of cells labeled with CFSE (Kang 2005). The cells were detached, added with 1.5 μM CFSE and allowed to stand for 15 min at 37° C., then washed twice and seeded in 6-well plates at 2×10^5. The cells were treated with the compound for 24 and 48 h, trypsinized and washed twice. Finally, the cells were resuspended in PBS and analyzed by flow cytometry. Green fluorescence emission from cells illuminated with excitation light of 488 nm was measured with a FACS Calibur (BD, Heidelberg, Germany) and analyzed using the CellQuest software.

B16 mouse melanoma cells = assay: MTT / CV cell viability test; format: cell-based; settings: B16 cells, different concentrations, 24 h; cell number also reduced by CV
Method: as §2, §3

C6 rat astrocytoma cells = assay: MTT / CV cell viability test; format: cell-based; settings: C6 cells, different concentrations, 24 h; cell number also reduced by CV
Method: as §2, §3

For O=C(O)CC1CC(c2ccccc2)=NO1 (racemic) [VGX-1027, (S,R)-3-phenyl-4,5-dihydro-5-isoxasole acetic acid, reference compound], the “intracellular production of ROS (DHR fluorescence)” value (“intracellular production of ROS” for short) (B16 cells) is listed as “did not release ROS”, the “intracellular production of ROS” value (L929 cells) is listed as “did not release ROS” and the diabetes progress (diabetes) is listed as “significantly reduces diabetes progress”. The “intracellular production of ROS” value (C6 cells) was “did not release ROS”, the “cell viability (MTT, mitochondrial respiration)” value (from here on “cell viability”) [1] was “did not affect the viability” and the “cell viability” value (B16 mouse melanoma cells) was “did not affect the viability”. For the same compound, the “cell viability” value (C6 rat astrocytoma cells) was “did not affect the viability”.
